In patent US20060104978A1, “Methods and compositions for PDGF-C activation and inhibition” (LUDWIG INSTITUTE FOR CANCER RESEARCH, priority 2003, published 2006):

Tests used:
[1] = system: secreted protease(s) present in the conditioned media from AG1523 cells; test: In vitro cleavage of recombinant latent PDGF-CC by AG1523 conditioned medium, protease inhibitor profile; assay type: biochemical, human; conditions: inhibitor preincubated 30 min with AG1523 medium, then recombinant PDGF-CC 37° C. overnight; AEBSF 1 mM, leupeptin 100 μM, aprotinin 100 μM; immunoblot
Description: In an in vitro assay, the properties of the enzyme(s) involved in cleavage and activation of PDGF-CC were studied by mixing serum-free conditioned media from AG1523 cells with His6-tagged recombinant full-length PDGF-CC.
The class of enzyme(s) responsible for cleavage and activation of latent PDGF-CC was established by generating an enzyme inhibitor profile of the enzymatic activity (FIG. 1E). Eight different protease inhibitors (see FIG. 1F) were separately preincubated with conditioned media from AG1523 cells, and then incubated with His6-tagged recombinant full-length PDGF-CC.
(§1) All protease inhibitors were purchased from Sigma and the concentrations used were as follows: AEBSF 1 mM, bestatin 100 μM, leupeptin 100 μM, pepstatin A 10 μM, E64 100 μM, aprotinin 100 μM (˜3 TIU), EDTA 50 mM, and phosphoramidon 100 μM. The protease inhibitors were preincubated with conditioned AG1523 medium at room temperature for 30 min, and then incubated with recombinant PDGF-CC (ratio 10:2) at 37° C. overnight. Recombinant PDGF-CC species were analyzed by immunoblotting as above. To determine whether tPA is the major proteolytic enzyme responsible for the PDGF-CC processing in AG1523 conditioned medium, AG1523 cells were cultured in serum-free medium, with or without the addition of a synthetic tPA inhibitor tPA-STOP™ (3.5-35 μM, #544, American Diagnostica Inc.) or 100 μM aprotinin as a positive control. The conditioned serum-free medium was collected, and proteins were precipitated before SDS-PAGE and immunoblotting using antibodies against PDGF-C (see above).

tPA [2] = test: Processing of endogenous PDGF-CC by growing AG1523 cells with tPA inhibitors in serum-free medium; assay type: cell-based, human; conditions: tPA-STOP 3.5-35 μM, aprotinin 100 μM in serum-free medium of AG1523 cells; immunoblot
Description: as §1

tPA [3] = test: Ni-NTA pull-down of purified tPA by His6-tagged recombinant proteins; assay type: binding, human; conditions: Ni-NTA beads coated with His6-tagged protein, 1 μg purified tPA, 2 hours room temperature, eluted with imidazole
Description: The possibility of a direct protein-protein interaction between tPA and latent PDGF-CC was explored by developing a pull-down assay. Ni-NTA beads were allowed to bind recombinant His6-tagged latent PDGF-CC or PDGF-DD, and purified tPA was added and incubated. Following extensive washings, bound proteins were subsequently eluted with an imidazole-containing buffer, and the eluates were analyzed by immunoblotting using specific antibodies.
To determine a direct protein-protein interaction between tPA and PDGF-CC, His6-tagged recombinant protein species were bound to Ni-NTA-agarose (Qiagen) and then incubated with 1 μg of purified tPA for 2 hours at room temperature. Uncoated and PDGF-DD coated Ni-NTA beads were used as controls. The beads were washed thoroughly, and His6-tagged proteins were specifically eluted with 400 mM imidazole. Eluted proteins were analyzed by SDS-PAGE under reducing conditions and immunoblotted with antibodies against human tPA (see above). The membranes were subsequently stripped and reprobed with specific antibodies.
Target sequence in this assay (P00750 36-562): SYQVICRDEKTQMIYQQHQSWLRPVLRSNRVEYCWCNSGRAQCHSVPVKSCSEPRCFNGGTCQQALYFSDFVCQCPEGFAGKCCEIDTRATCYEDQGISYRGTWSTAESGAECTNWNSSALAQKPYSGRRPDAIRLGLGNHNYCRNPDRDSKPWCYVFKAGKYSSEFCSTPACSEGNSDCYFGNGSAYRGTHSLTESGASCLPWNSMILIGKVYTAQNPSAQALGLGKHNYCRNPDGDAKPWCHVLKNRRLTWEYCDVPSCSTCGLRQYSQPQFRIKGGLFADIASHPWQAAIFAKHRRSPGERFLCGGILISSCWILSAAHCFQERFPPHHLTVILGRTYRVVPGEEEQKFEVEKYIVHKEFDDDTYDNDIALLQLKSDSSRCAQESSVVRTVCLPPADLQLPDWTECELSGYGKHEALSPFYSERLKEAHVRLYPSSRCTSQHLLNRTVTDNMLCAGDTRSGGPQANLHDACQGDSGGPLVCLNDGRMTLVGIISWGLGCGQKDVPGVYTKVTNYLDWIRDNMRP

binding of tPA in pull-down (tPA [3])	Compound	inhibition of proteolytic cleavage of latent PDGF-CC [1]	inhibition of processing of endogenous full-length PDGF-CC (tPA [2])
	NCCc1ccc(S(=O)(=O)F)cc1 [AEBSF]	inhibited the proteolytic cleavage of latent PDGF-CC	
	CC(=O)N[C@@H](CC(C)C)C(=O)N[C@@H](CC(C)C)C(=O)N[C@H](C=O)CCCNC(=N)N [leupeptin]	inhibited the proteolytic cleavage of latent PDGF-CC	
	Cl.Cl.N=C(N)c1ccc(C=C2CCCCC(=Cc3ccc(C(=N)N)cc3)C2=O)cc1 [tPA-STOP™]		in a dose-dependent way, prevented processing of full-length PDGF-CC
failed to do so	PDGF-DD: recombinant His6-tagged latent full-length PDGF-DD		
	aprotinin	inhibited the proteolytic cleavage of latent PDGF-CC	efficiently inhibited processing of latent PDGF-CC
